The record followed here is patent US20240050574A1, “IONIZABLE LIPIDS” (eTheRNA immunotherapies NV, priority 2020, published 2024).

Data set [1] in a line: LNP size and polydispersity index by Dynamic Light Scattering (Malvern Zetasizer). In kind it is physicochemical.
Assay in data set [2]: as above
To be noted: N/P 10. In kind it is physicochemical. As to the method:
(§1) Lipid based nanoparticles are produced by microfluidic mixing of an mRNA solution in sodium acetate buffer (100 mM, pH4) and lipid solution in a 2:1 volume ratio at a speed of 9 mL/min using the NanoAssemblr Benchtop (Precision Nanosystems). The lipid solution contained a mixture of the ionizable lipid of interest, DSPC, DOPC or DOPE (Avanti), Cholesterol (Sigma) and DMG-PEG2000 (Sunbright GM-020, NOF corporation. The 4 lipids were mixed at 6 different molar ratios. LNPs were dialyzed against TBS (10000 times more TBS volume than LNP volume) using slide-a-lyzer dialysis cassettes (20K MWCO, 3 mL, ThermoFisher). Size, polydispersity and zeta potential were measured with a Zetasizer Nano (Malvern). mRNA encapsulation was measured by standard Ribogreen RNA assay (Invitrogen).
Size and Poly Dispersity Index were assessed by Dynamic Light Scattering (DLS) on a Malvern Zetasizer. MC-3 is the ionizable lipid used in Onpattro and is considered the state-of-the art.
(§2) LNP formulations were prepared using a modified procedure of a method previously described for siRNA LNP synthesis. All formulations were prepared in a sterile manner with a N/P ratio of 10. All lipid components were dissolved in ethanol at molar ratios of 50:10:38.5:1.5 mol % (ionizable lipid/DSPC/Cholesterol/DMG-PEG2000). DSPC, Cholesterol and DMG-PEG2000 were purchased from Avanti Polar Lipids (Alabaster, Alabama, USA), while the Ionizable lipids are synthesized in-house. The final lipid concentration in ethanol was fixed at 10 mg/mL. E7 mRNA was dissolved in 100 mM acetate buffer (Sigma Aldrich, Saint-Louis, Missouri, USA) pH 4. The ethanol and aqueous phase were combined using a microfluidic mixer (NanoAssemblr® BenchTop (Precision Nanosystems, Vancouver, BC) in a 2:1 (aqueous:ethanol) ratio. Formulations were dialysed afterwards against 1× Sterile TBS pH 7.4 (Sigma Aldrich, Saint-Louis, Missouri, USA) using Slide-A-Lyzer® dialysis cassettes with a MWCO of 20.000 Da (Thermo Scientific, Massachusetts, USA) for 18 hours. Afterwards, the purified formulations were concentrated using Amicon ultra centrifugal filters (EMD Millipore, Massachusetts, USA). Finally, the exact concentration and E.E. % was determined through a Ribogreen Assay prior to final dilution with TBS (100 μg/mL E7 mRNA per formulation. All formulations were characterized for size and PDI using Dynamic Light Scattering Zetasizer Nano-ZS (Malvern Pananlytical Ltd., Malvern, UK) and stored afterwards at 4° C. The physico-chemical characteristics of each formulation can be found in Table 5.

Data set [3] can be described thus: mRNA encapsulation efficiency by Ribogreen RNA assay. In kind it is physicochemical. The following applies: for % encap: eGFP mRNA; for E.E. (encapsulation efficiency): N/P 10. As to the method:
as §1, with “(Invitrogen). […]” for “(Invitrogen).”
as §2

Data set [4] can be described thus: Body weight after intratumoral LNP administration (B16F10 model). In kind it is in vivo, C57/BL6 mice. The following applies: B16F10 model (Example 2.5); after intratumoral administration of 10 μg mRNA LNP.
Data set [5] is described as follows: Body weight after intratumoral LNP administration (CT26 model). In kind it is in vivo, Balb/c mice. To be noted: after intratumoral administration of 10 μg mRNA LNP. As to the method:
Fluc mRNA expression in tumor and liver was assessed at 6 an 24 hours post injection. By injecting mice peritoneally with D-luciferin (Promega), bioluminescence can be measured through in vivo imaging (IVIS Spectrum System). Bioluminescence is generated through an oxidation reaction which occurs between the enzyme luciferase derived from the firefly mRNA encapsulated in the LNP and its substrate D-luciferin. The Living Image Software (PerkinElmer) was used to specify tumor and liver ‘region of interests (ROIs) after which the average radiance (p/s/cm^2/sr) was calculated within these ROIs. To monitor tolerability of different LNP types used, bodyweight at 6 and 24 hours post injection was compared to baseline bodyweight at day of randomization.
Balb/c mice were subcutaneously inoculated with CT26 tumor cells. When tumors reached a mean volume of 50-100 mm^3, tumors were injected with the respective mRNA LNPs (10 μg mRNA; 20 μl volume; TBS buffer) or with control buffer.

The test system of a further data set is E7-specific CD8 T cells. The data set can be described thus: E7-specific CD8 T cell response after intramuscular E7 mRNA LNP vaccination (Example 5). In kind it is in vivo, mice. To be noted: Example 5, FIG. 13, in vitro stimulation with E7-derived peptide, vs MC-3.
Data set [6] deals with liver. The experiment in a line: Fluc mRNA off-target expression in liver after intratumoral LNP injection of CT26 tumors. In kind it is in vivo, Balb/c mice. To be noted: intratumoral 10 μg mRNA, 6 hours and 24 hours post injection, vs MC-3 based benchmark LNP. How it is done:
(§3) In case of CT26 tumor inoculation we used Balb/c mice. For B16F10 tumor inoculation C57/BL6 mice were used. To prepare for subcutaneous tumor inoculation, mice were anesthetized using 2.5% isoflurane and the injection site was shaved. The injection site is typically on the posterior/lateral aspect of the lower left flank. For inoculation purposes, cells need to be approximately 1 week in culture and between passage 3 and 5 after thawing. Cold tumor cell solution was injected subcutaneously at a dose of 0.5*10e6 cells/50 μl PBS. Tumor growth was measured every 2-3 days using the Caliper device. The following formula was used to calculate tumor size: (tumor width*tumor width*tumor length)/2. […] After injections, mice were always monitored for 5-10 minutes until fully awake without showing any sings of pain distress or complications.
(§4) Fluc mRNA expression in tumor and liver was assessed at 6 an 24 hours post injection. By injecting mice peritoneally with D-luciferin (Promega), bioluminescence can be measured through in vivo imaging (IVIS Spectrum System). […] The Living Image Software (PerkinElmer) was used to specify tumor and liver ‘region of interests (ROIs) after which the average radiance (p/s/cm^2/sr) was calculated within these ROIs. […]

For data set [7], the system named is liver. The experiment in a line: Fluc mRNA off-target expression in liver after intratumoral LNP injection of B16F10 tumors. In kind it is in vivo, C57/BL6 mice. The following applies: B16F10 tumors (Example 2.5); intratumoral 10 μg mRNA; 6 hours and 24 hours post injection; vs MC-3 based benchmark LNP. How it is done:
as §3, §4

The next data set relates to B16F10 tumors. The experiment in a line: Fluc mRNA expression in tumor after intratumoral LNP injection, in vivo bioluminescence. Also noted: species or system C57/BL6 mice. The following applies: B16F10 tumors (Example 2.5); intratumoral 10 μg mRNA; 6 hours and 24 hours post injection; vs MC-3 based benchmark LNP. How it is done:
as §3, §4

Setting [8] is: Table 3, LNP ionizable lipid/phospholipid/cholesterol/DMG-PEG2000 about 50/10/38.5/1.5, DOPE, except MC-3 with DSPC, eGFP mRNA.
[9] abbreviates: Table 3, LNP ionizable lipid/phospholipid/cholesterol/DMG-PEG2000 about 50/10/38.5/1.5, DOPE, except MC-3 with DSPC, eGFP mRNA, in nm (unit assumed).
The mark [10] stands for this setting: Table 5, ionizable lipid/DSPC/Chol/DMG-PEG2000 50/10/38.5/1.5 mol %, E7 mRNA.
Where [11] appears, read: Table 3, LNP ionizable lipid/phospholipid/cholesterol/DMG-PEG2000 about 50/10/38.5/1.5, DOPE, except MC-3 with DSPC.
Setting [12] is: Table 7, Ratio 1: 50/10/38.5/1.5 mol % ionizable lipid/DSPC (SS-EC: DOPE)/Chol/DMG-PEG2000.
[13] abbreviates: Table 6 (Example 4, HA mRNA), ionizable lipid/DSPC/Chol/DMG-PEG2000 50/10/38.5/1.5 mol %, N/P 10.
Setting [14] is: Table 7, Ratio 2: 56.71/14.43/27.58/1.28 mol % ionizable lipid/DSPC/Chol/DMG-PEG2000, N/P 10.
Where [15] appears, read: Table 6 (Example 4, HA mRNA), ionizable lipid/DSPC/Chol/DMG-PEG2000 50/10/38.5/1.5 mol %.
Setting [16] is: Table 7, Ratio 2: 56.71/14.43/27.58/1.28 mol % ionizable lipid/DSPC/Chol/DMG-PEG2000.

Regarding `CCCCCCCC/C=C\CCCCCCCC(=O)OCC(CNC(=O)OCCOC(C)(C)OCCOC(=O)NCCN1CCCCCC1)OC(=O)CCCCCCC/C=C\CCCCCCCC` (centres unmarked) [K-Ac7-DOg], the PDI in [1] (setting [8]) was determined as 0.108; in data set [2] (setting [10]) it was 0.130. Also, the size in data set [1] (setting [9]) turned out to be 62.26; in [2] (setting [10]), 164.8 nm. For the same compound, the “% encap” value in data set [3] (setting [11]) is 93%. Further, the “E.E. (encapsulation efficiency)” value in data set [3] (setting [10]) is reported as 49%.

Take `CCCCC/C=C\C/C=C\CCCCCCCCC(CCCCCCCC/C=C\C/C=C\CCCCC)OC(=O)CCCN(C)C` [MC3, reference compound]: the body weight result in data set [4] and in data set [5] was “significant body weight loss” in each case. Moreover, the PDI in data set [1] (Table 2, LNP ionizable lipid/DOPE/cholesterol/DMG-PEG2000 about 50/10/38.5/1.5, eGFP mRNA) came to 0.103; in data set [1] (setting [8]), 0.08; in [2] (setting [10]), 0.106; in [2] (setting [12]), 0.117. Also, the size in [1] (Table 2, LNP ionizable lipid/DOPE/cholesterol/DMG-PEG2000 about 50/10/38.5/1.5, eGFP mRNA, mRNA/ionizable lipid molar ratio 1/10, in nm (unit assumed)) came to 73.14; in data set [1] (setting [9]), 73.33; in [2] (setting [10]), 67.57 nm; in data set [2] (setting [12]) it was 74 nm. Moreover, the “% encap” value in data set [3] (Table 2, LNP ionizable lipid/DOPE/cholesterol/DMG-PEG2000 about 50/10/38.5/1.5) worked out at 100%; in [3] (setting [11]), 94%. Moreover, the “E.E. (encapsulation efficiency)” value in [3] (setting [10]) was 99%; in data set [3] (setting [12]), 96%.

Consider `CCCCCCCC/C=C\CCCCCCCC(=O)OCC(CNC(=O)OCCSSCCOC(=O)NCCCN1CCCCC1CC)OC(=O)CCCCCCC/C=C\CCCCCCCC` (centres unmarked) [S-Ac6e-DOg], for which the PDI in data set [1] (setting [8]) worked out at 0.311; in data set [2] (setting [10]), 0.266. Moreover, the results for the size in data set [1] (setting [9]) and in [2] (setting [10]) were 63.86 and 178.1 nm, respectively. Further, the “% encap” value in data set [3] (setting [11]) was determined as 95%. In data set [3] (setting [10]), the “E.E. (encapsulation efficiency)” value turned out to be 92%.

As for `CCCCCCCCC(CCCCCC)C(=O)OCCN(CCOC(=O)C(CCCCCC)CCCCCCCC)C(=O)OCCSSCCOC(=O)NCCN1CCCCCC1` (centres unmarked) [S-Ac7-DHDa], the PDI was determined as 0.083 in data set [1] (setting [13]), 0.081 in [1] (setting [14]) and 0.095 in data set [2] (setting [12]). Besides, the size in data set [1] (setting [13]) came out at 105.1 nm; in data set [1] (setting [14]), 88 nm; in data set [2] (setting [12]), 90 nm. Besides, the “T cell responses (IFNg+, IFNg+ TNFa+, IFNg+ Granzyme b+, IFNg+ CD107+ CD8 T cells in spleen)” value in the data set with E7-specific CD8 T cells is “superior T cell responses compared to MC-3”. Besides, the entries for the “E.E. (encapsulation efficiency)” value in [3] (setting [15]), in data set [3] (setting [12]) and in data set [3] (setting [16]) were 97%, 97% and 95%, respectively.

`CCCCCCCC/C=C\CCCCCCCC(=O)OCC(CNC(=O)OCCSSCCOC(=O)NCCN1CCCCCC1)OC(=O)CCCCCCC/C=C\CCCCCCCC` (centres unmarked) [S-Ac7-DOg]: the body weight result in data set [4] and in data set [5] was “No weight loss” throughout. The PDI in data set [1] (setting [8]) is reported as 0.21; in data set [1] (setting [13]) it was 0.077; in [1] (setting [14]), 0.106; in [2] (setting [10]) it was 0.062; in data set [2] (setting [12]), 0.094. Further, the size was 87.46 in data set [1] (setting [9]); 93.62 nm in data set [1] (setting [13]); 97 nm in data set [1] (setting [14]); 97.51 nm in data set [2] (setting [10]); 109 nm in data set [2] (setting [12]). For the same compound, the “off-target Fluc expression in the liver” value in the data set on liver [6] and in the data set on liver [7] was “strongly reduced off-target expression in the liver” in each case. Besides, the “Fluc expression levels in the tumor (in vivo bioluminescence)” value in the data set with B16F10 tumors is “increased Fluc expression levels in the tumor compared to the MC-3 based benchmark LNP”. Also, the “% encap” value in [3] (setting [11]) amounted to 90%. In addition, the “E.E. (encapsulation efficiency)” value in [3] (setting [10]) is 96%; in data set [3] (setting [15]), 98%; in data set [3] (setting [12]), 97%; in [3] (setting [16]), 96%.

`CCCCCCCCC(CCCCCC)C(=O)OCCN(CCOC(=O)C(CCCCCC)CCCCCCCC)C(=O)OCCSSCCOC(=O)NCCN1CCN(C)CC1` (centres unmarked) [S-Amp-DHDa]: in [1] (setting [13]), the PDI came out at 0.1515 and the size was 106.3 nm. Further, in [3] (setting [15]), the “E.E. (encapsulation efficiency)” value worked out at 99%.
